Experimental data from US20240287463A1, “INDUCIBLE TISSUE CONSTRUCTS AND USES THEREOF” (Massachusetts Institute of Technology, priority 2020, published 2024).

How the values were obtained:
iCasp9-HLF = experiment: HUVEC/iCasp9-HLF tissue constructs implanted in mouse fat pad; format: in vivo, mice; conditions: 10 mg/kg intraperitoneally on days 5, 7, 9
Procedure: The ability to successfully transplant the described tissue constructs was assessed in mice. Specifically, engineered tissue constructs consisting of HUVECs and iCasp9-human lung fibroblasts (iCasp9-HLF, see Example 7) were cultured for 7 days in vitro. Constructs were then implanted into the intraperitoneal mesenteric parametrial fat pad of mice. Five days after implantation, mice were injected with 10 mg/kg CID or vehicle intraperitoneally. Mice were dosed again on days 7 and 9. Constructs were collected from mice on day 10 post-implantation. Explants were cryosectioned and imaged to visualize the presence of cells.

[1] = biological target: T1, inducible caspase-9 (iCasp9) (Homo sapiens, UniProt P55211); experiment: caspase-9 activation in CID-treated iCasp9-GFP J2 fibroblasts (antibody staining, Caspase-Glo 9); format: cell-based
T1 construct: #15567 pMSCV-F-del Casp9.IRES.GFP; host or cells: 3T3-J2 fibroblasts, lentivirally transduced
T1 sequence (P55211 with tags, fused parts or gaps limits assumed): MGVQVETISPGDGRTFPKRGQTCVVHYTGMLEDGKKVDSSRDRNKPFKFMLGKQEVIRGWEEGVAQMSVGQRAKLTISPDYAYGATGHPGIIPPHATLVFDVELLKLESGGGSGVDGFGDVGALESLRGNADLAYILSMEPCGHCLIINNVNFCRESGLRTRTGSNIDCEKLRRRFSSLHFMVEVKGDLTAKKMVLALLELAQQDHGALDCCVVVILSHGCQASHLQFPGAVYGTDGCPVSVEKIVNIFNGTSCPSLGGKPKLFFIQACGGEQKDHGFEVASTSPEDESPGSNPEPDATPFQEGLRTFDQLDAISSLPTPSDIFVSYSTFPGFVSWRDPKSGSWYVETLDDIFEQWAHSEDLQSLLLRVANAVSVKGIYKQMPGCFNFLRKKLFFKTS
Excerpt: Inducible caspase-9 (iCasp9), which is activated by treatment with a small molecule chemical inducer of dimerization (CID; also known as rapalog, an analog of rapamycin) and leads to subsequent cell death through the intrinsic apoptosis pathway was utilized (FIG. 1A). The safety and efficacy of the iCasp9 transgene and CID have previously been shown in vitro and in vivo in animals and humans (A. Di Stasi, et al. (2011) dx.doi.org/10.1056/NEJMoa1106152; T. Gargett and M. P. Brown (2014) Front. Pharmacol. 5; K. C. Straathof, et al. (2005) Blood 105, 4247, each of which is herein incorporated by this reference). To generate inducible cells, 3T3-J2 fibroblasts (‘J2’) were transduced with lentivirus with a bidirectional expression cassette encoding iCasp9 and GFP genes (#15567 pMSCV-F-del Casp9.IRES.GFP; cloned to a lentivirus plasmid backbone with an SFFV promoter). FACS was used to enrich the infected population for the 15% highest-expression GFP+ cells. […] To transfect J2s, virus was added to growth media and cultured overnight. iCasp9-GFP J2 fibroblasts at passage 22 were grown at confluence for 2 weeks to mimic experimental culture conditions, without a decrease in the percentage of the cell population with positive GFP expression. iCasp9-GFP J2s were plated in monolayer and dosed with ethanol vehicle or CID (B/B homodimerizer, AP20187; rapalog; Takara/ClonTech), and then assayed for cell viability using the CellTiter-Glo® Luminescent Cell Viability Assay (Promega), for caspase-9 activation using the CaspGLOW™ Fluorescein Active Caspase-9 Staining Kit (Thermo Fisher Scientific) and Caspase-Glo®9 Assay Systems (Promega), or stained with the Pacific Blue Annexin V/SYTOXTM AADvanced™ Apoptosis Kit (Thermo Fisher) to identify apoptotic cells by flow cytometry (>100,000 cells analyzed per condition).
After iCasp9-GFP J2 fibroblasts were exposed to CID, iCasp9 dimers were detected by staining with a caspase-9 antibody (FIG. 1C). […]

Caspase-9 staining ([1]; 50 nM CID, collected 15 and 30 minutes after treatment): increased
caspase-9 cleavage compared to wild-type J2s ([1]; 15 minutes after CID dosing): 16 fold
caspase-9 cleavage compared to wild-type J2s ([1]; 30 minutes after CID dosing): 18 fold
SMILES: CC[C@H](C(=O)N1CCCC[C@H]1C(=O)O[C@H](CCc1ccc(OC)c(OC)c1)c1cccc(OCC(=O)NCC(CNC(=O)COc2cccc([C@@H](CCc3ccc(OC)c(OC)c3)OC(=O)[C@@H]3CCCCN3C(=O)[C@@H](CC)c3cc(OC)c(OC)c(OC)c3)c2)CN(C)C)c1)c1cc(OC)c(OC)c(OC)c1 [CID, AP20187]
integration of engineered vessels with host vessels (anti-TER119) (iCasp9-HLF; collected day 10): demonstrated vessel integration
iCasp9-HLF in explants compared to vehicle treated mice (iCasp9-HLF; collected day 10 post-implantation): reduction
